Laboratory results as given in patent publication US5489592A, “3,4-dihydro-4-oxo-3-(2-propenyl)-1-phthalazineacetic acids and derivatives, their preparations and medicines containing them” (Lipha, Lyonnaise Industrielle Pharmaceutique, priority 1991, dated 1996).

Experiments:
aldose reductase = biological target: T1, aldose reductase (Rattus norvegicus, UniProt P07943); experiment: In vitro study: inhibition of aldose reductase; type: biochemical, male Wistar rats; details: rat crystallin enzyme, NADPH, L-glyceraldehyde, 340 nm; confidence interval in parentheses
T1 construct: The aldose reductase used is obtained from crystallins from male Wistar rats; from tissue; host or cells: eye lens of male Wistar rats, enzymatic extract
Protocol: 1) In vitro study: inhibition of aldose reductase
The aldose reductase used is obtained from crystallins from male Wistar rats according to a modification of the method of S. Hayman et al. (Journal of Biological Chemistry, 240, p. 877, 1965). The enzymatic extract is diluted in a phosphate buffer in the presence of NADPH and of various concentrations of the products to be tested. The reaction is triggered by L-glyceraldehyde and the rate of reaction is measured by monitoring the disappearance of NADPH by spectrophotometry at 340 nm. The inhibition of the rate of reaction is calculated for each concentration of products and then the concentration necessary for a 50% inhibition (IC50) is evaluated by linear interpolation.

[1] = test system: level of sorbitol in the crystallins; experiment: In vivo study: reduction in the accumulation of sorbitol in streptozotocin-diabetic rats; design: species or system male Wistar rats; details: Rattus norvegicus, oral, 4, 30 and 52 h after streptozotocin (60 mg/kg i.v.), 50% reduction, confidence interval in parentheses
Protocol: 2) In vivo study: reduction in the accumulation of sorbitol
Male Wistar rats, weighing 200 to 250 g, are made diabetic by intravenous injection of streptozotocin (60 mg/kg). They then receive an oral treatment of the products to be tested, in the form of a 10% suspension in gum arabic, 4 hours, 30 hours and 52 hours after injection of streptozotocin. Eighteen hours after the last oral treatment, the rats are stunned and decapitated and their crystallins are then withdrawn. After extraction, the level of sorbitol in the crystallins is measured according to the enzymatic method described by H. U. Bergmeyer (Methods of Enzymatic Analysis, edited by H. U. Bergmeyer, Academic Press, New York, 3, p. 1323, 1974).
Various doses of products are tested and the inhibitions are calculated with respect to a control batch of diabetic rats. The dose necessary for a 50% reduction in the level of sorbitol is then evaluated by linear interpolation.

| IC50 (aldose reductase) | SMILES | ED50 [1] |
| --- | --- | --- |
| 8.6 nM | O=C(O)Cc1nn(C/C=C/c2c(F)ccc(C(F)(F)F)c2F)c(=O)c2ccccc12 [Example B41, (E) -3-[3-[2,6-difluoro-3-(trifluoromethyl)phenyl]-2-propenyl]-3,4-dihydro-4-oxo-1-phthalazineacetic acid] | 4.4 mg/kg |
| 9.6 nM | O=C(O)Cc1nn(C/C=C/c2c(F)c(F)cc(F)c2F)c(=O)c2ccccc12 [Example B43, (E) -3-[3-(2,3,5,6-tetrafluorophenyl)-2-propenyl]-3,4-dihydro-4-oxo-1-phthalazineacetic acid] | 5.8 mg/kg |
| 8.4 nM | O=C(O)Cc1nn(C/C(F)=C/c2cccc(C(F)(F)F)c2)c(=O)c2ccccc12 [Example B49, (Z) -3-[2-fluoro-3-[3-(trifluoromethyl)phenyl]-2-propenyl]-3,4-dihydro-4-oxo-1-phthalazineacetic acid] | 8.2 mg/kg |

Continued, compound first:

| SMILES | IC50 (aldose reductase) | ED50 [1] |
| --- | --- | --- |
| O=C(O)Cc1nn(C/C=C/c2cccc(C(F)(F)F)c2F)c(=O)c2ccccc12 [Example B1, (E) -3-[3-[2-fluoro-3-(trifluoromethyl)phenyl]-2-propenyl]-3,4-dihydro-4-oxo-1-phthalazineacetic acid] | 10.2 nM | 4.8 mg/kg |
| O=C(O)Cc1nn(C/C=C/c2c(F)ccc(F)c2F)c(=O)c2ccccc12 [Example B38, (E) -3-[3-(2,3,6-trifluorophenyl)-2-propenyl]-3,4-dihydro-4-oxo-1-phthalazineacetic acid] | 8.9 nM | 4.7 mg/kg |
| O=C(O)Cc1nn(C/C=C/c2c(F)ccc(Br)c2F)c(=O)c2ccccc12 [Example B40, (E) -3-[3-(3-bromo-2,6-difluorophenyl)-2-propenyl]-3,4-dihydro-4-oxo-1-phthalazineacetic acid] | 8.2 nM | 6.1 mg/kg |
